Our source for the IC50 values is patent publication US7307081B2, “Piperidine derivatives useful as CCR5 antagonists” (priority 2002, dated 2007).

One assay relates to HIV-1 luciferase reporter virus (ADA-Luc-FL, YU-2-Luc-FL, HxB-Luc-FL) in U87-CD4-CCR5 cells. In words: Luciferase Replication Assay (HIV replication). It counts as cell-based. Particulars: Human immunodeficiency virus 1, U87/CD4/CCR5, 72 h, read-out: HIV Replication (Luciferase) IC50 nM, U87-CD4-CCR5 cells, replication-competent luciferase reporter virus, cultures incubated 3 days. On the procedure:
Luciferase Replication Assay:
Plasmids encoding the full length genome of HIV-1 pNL-4-Luc with the gp 120 V-3 loop replaced by the Bgl II fragment of HIV-1 ADA, YU-2 or HxB (ADA-Luc-FL, YU-2-Luc-FL and HxB-Luc-FL) are obtained from Dr. Susan Pontow (Washington University, St. Louis Mo.). Replication-competent luciferase reporter virus stocks are generated by transfection of plasmids into 293T cells using Superfect (Qiagen) or Mirus transfection reagents. Viral stocks are collected 48 hours following transfection and titered for luciferase production on U-87-CCR5 or CXCR4 cells. U87-CD4-CCR5 cells (10^4/ well) are plated in 96-well cell culture plates and incubated overnight. Media is removed and replaced with 50 μl of fresh culture media (DMEM, 10% FCS) and 50 μl of compound diluted in culture medium. Cells are incubated with compound at 37° C. for 1 hour. The resultant supernatant is removed and replaced with 20 μl of media containing compound and infected with an equal volume of diluted or undiluted virus stock at 37° C. for 3-4 hours. The cells are washed once with DMEM, and 200 μl of media containing compound is added. The cultures are incubated for 3 days, the cells lysed in luciferase lysis buffer (Promega, Madison, Wis.) and transferred to Immulon plates (Dynex Technologies, Chantilly Va.). An equal volume of luciferase substrate (Promega, Madison Wis.) is added to lysates and the plates read immediately in a Wallac Luminometer. Fifty and ninety percent inhibitory concentrations are determined using GraphPad PRISM software.
In general terms: A reporter such as luciferase makes a cellular process visible.
A word on the IC50: it is the point on the concentration scale where inhibition reaches its midpoint. On to `Cc1ncnc(C)c1C(=O)N1CCC(C)(N2CCN(C(Cc3ccccc3)C3CCCN(S(=O)(=O)C4CC4)C3)[C@@H](C)C2)CC1` (mixture of isomers) [Example 1], for which the IC50 was found to be 2 nM.

Regarding `COc1ccc(CN2CCCC(C(Cc3ccccc3)N3CCN(C4(C)CCN(C(=O)c5c(C)ncnc5C)CC4)C[C@@H]3C)C2)cc1` (mixture of isomers) [Example 2], the 50% inhibitory concentration (IC50) was 25 nM.

Consider `Cc1ncnc(C)c1C(=O)N1CCC(C)(N2CCN(C(Cc3ccccc3)C3CCCN(S(=O)(=O)c4cccc(Cl)c4)C3)[C@@H](C)C2)CC1` (mixture of isomers) [Example 3], for which the half-maximal inhibitory concentration (IC50) was found to be 2 nM.

As for `Cc1ncnc(C)c1C(=O)N1CCC(C)(N2CCN(C(Cc3ccccc3)C3CCCNC3)[C@@H](C)C2)CC1` (mixture of isomers) [Example 4], the IC50 was 4 nM.

As for `Cc1ncnc(C)c1C(=O)N1CCC(C)(N2CCN([C@@H](c3cccc(F)c3)C3CCN(S(=O)(=O)C4CC4)C3)[C@@H](C)C2)CC1` (mixture of isomers) [Example 11], the IC50 was 0.3 nM.

Regarding `Cc1ncnc(C)c1C(=O)N1CCC(C)(N2CCN(C(c3ccccc3)C3CCCN(S(C)(=O)=O)C3)[C@@H](C)C2)CC1` (stereo partly shown) [Example 7], the IC50 was found to be 0.5 nM.

In the case of `COc1ccc(CN2CCCC([C@H](c3ccccc3)N3CCN(C4(C)CCN(C(=O)c5c(C)ncnc5C)CC4)C[C@@H]3C)C2)cc1` (stereo partly shown) [Example 8], the IC50 was determined as 1.6 nM.

`Cc1ncnc(C)c1C(=O)N1CCC(C)(N2CCN([C@@H](c3ccccc3)C3CCCNC3)[C@@H](C)C2)CC1` (stereo partly shown) [Example 9]: the IC50 is 11 nM.

Take `Cc1ncnc(C)c1C(=O)N1CCC(C)(N2CCN(C(CC3CCN(S(=O)(=O)C4CC4)CC3)c3cccc(F)c3)[C@@H](C)C2)CC1` (stereo partly shown) [Example 10]: the IC50 was found to be 3 nM.

For the molecule `Cc1ncnc(C)c1C(=O)N1CCC(C)(N2CCN([C@@H](c3cccc(F)c3)C3CN(S(=O)(=O)C4CC4)C3)[C@@H](C)C2)CC1` [Example 12], the half-inhibitory concentration (IC50) was determined as 1 nM.

Consider `Cc1ncnc(C)c1C(=O)N1CCC(C)(N2CCN([C@@H](c3cccc(F)c3)C3CN(S(=O)(=O)c4ccccc4)C3)[C@@H](C)C2)CC1` [Example 13], for which the IC50 turned out to be 0.7 nM.

Take `Cc1ncnc(C)c1C(=O)N1CCC(C)(N2CCN([C@@H](c3cccc(F)c3)C3CN(S(C)(=O)=O)C3)[C@@H](C)C2)CC1` [Example 14]: the IC50 amounted to 2 nM.

Regarding `Cc1ncnc(C)c1C(=O)N1CCC(C)(N2CCN([C@@H](c3cccc(F)c3)C3CN(C(=O)C4CC4)C3)[C@@H](C)C2)CC1` [Example 15], the IC50 turned out to be 5 nM.

Take `Cc1ncnc(C)c1C(=O)N1CCC(C)(N2CCN([C@@H](Cc3ccccc3)C3CN(S(=O)(=O)C4CC4)C3)[C@@H](C)C2)CC1` [Example 16]: the 50% inhibitory concentration (IC50) worked out at 4 nM.

With `Cc1ncnc(C)c1C(=O)N1CCC(C)(N2CCN([C@@H](Cc3ccccc3)C3CN(S(=O)(=O)c4ccccc4)C3)[C@@H](C)C2)CC1` [Example 17], the IC50 stood at 0.4 nM.

`Cc1ncnc(C)c1C(=O)N1CCC(C)(N2CCN([C@@H](Cc3ccccc3)C3CN(S(C)(=O)=O)C3)[C@@H](C)C2)CC1` [Example 18]: the half-inhibitory concentration (IC50) was 17 nM.

As for `Cc1ncnc(C)c1C(=O)N1CCC(C)(N2CCN([C@@H](Cc3ccccc3)C3CN(C(=O)C4CC4)C3)[C@@H](C)C2)CC1` [Example 19], the half-maximal inhibitory concentration (IC50) was 13 nM.

The assay is the same for the next values; noted with them: read-out: HIV Replication (Luciferase) IC50 nM; U87-CD4-CCR5 cells, replication-competent luciferase reporter virus, cultures incubated 3 days.
Turning to `Cc1ncnc(C)c1C(=O)N1CCC(C)(N2CCN(C(c3ccccc3)C3CCCN(S(=O)(=O)C4CC4)C3)[C@@H](C)C2)CC1` (stereo partly shown) [Example 5], the 50% inhibitory concentration (IC50) stood at 15 nM.

Consider `Cc1ncnc(C)c1C(=O)N1CCC(C)(N2CCN(C(c3ccccc3)C3CCCN(S(=O)(=O)C4CC4)C3)[C@@H](C)C2)CC1` (stereo partly shown) [Example 6], for which the IC50 worked out at 0.7 nM.
